Source: US10226509B2, “Lymphangiogenesis inhibitors for cancer and for graft survival” (TUFTS UNIVERSITY, priority 2014, dated 2019)
Like-named read-outs stand apart in the source and are kept apart here.

How the values were obtained:
LEC spheroids = experiment: LEC sprouting assay: stimulation by galectins alone; format: cell-based, human; details: 24 hours
Procedure: (§1) LEC spheroids were generated by seeding primary LECs at passage 4 or 5 in each well of 384-well hanging-drop plates (3D Biomatrix) in complete EGM-2 MV medium containing 0.25% methyl cellulose according to the manufacturer's instructions (750 cells/well). After 18 hours, LEC spheroids were collected, resuspended in serum-free EBM-2 basal medium, and mixed with collagen solution (PureCol collagen, Advanced BioMatrix, 2.2 mg/ml in M199 medium, pH adjusted to 7.4 with NaHCO3 and NaOH). Aliquots of the LEC spheroid/collagen mixture (250 μl/well of 48-well plate) were incubated in the presence or absence of various test agents for 24 hr. At the end of the incubation period, spheroids were stained with Calcein AM (Invitrogen, 1 μg/mL, 37° C., and 30 min). Fluorescent images were acquired using the EVOS FL cell imaging system, pixels were inverted for better visualization and cumulative length of each sprout was calculated. Results were expressed as fold change compared to corresponding controls. It was observed that sprout lengths vary from passages to passages. Test agents used included thiodigalactoside (10 to 50 mM, Carbosynth), 3′-sialyl lactose (2 to 10 mM, Carbosynth), 6′-sialyl lactose (2 to 10 mM, Carbosynth), LY294002 (20 μM, Abeam), U0126 (20 μM, Abeam), PD0325901 (1 μM, Selleckchem), human VEGFR-3-Fc chimera (10 μg/ml, R&D), human VEGFR-2-Fc chimera (10 μg/ml, R&D), Avastin (10 μg/ml, bevacizumab, Genentech/Roche), human control IgG (10 μg/ml, Southern Biotech), anti-human podoplanin functional grade antibody (10 μg/ml, eBioscience), and rat IgG2a κ isotype control functional grade antibody (10 μg/ml, eBioscience).
To assess the effect of galectins on LEC sprouting, LEC spheroids were embedded in a collagen matrix and incubated with media containing various test agents. After 24 hours, the cumulative length of the sprouts for each spheroid was quantified by ImageJ. […] Multiple approaches were used to determine whether the stimulatory effect of Gal-8 on LEC sprouting was carbohydrate-dependent.

[1] = tested on: VEGF-C-induced LEC sprouting; experiment: LEC sprouting assay: VEGF-C-induced sprouting; format: cell-based, human; details: VEGF-C 50 ng/ml, 24 h
Procedure: as §1
In this assay, the LEC spheroids were treated with VEGF-C (50 ng/ml) in the presence or absence of 0.75 μM of Gal-8 for 24 hours, and then accumulated sprout lengths were quantified. […] Synergistic effect of Gal-8 on VEGF-C-induced LEC sprouting was dose-dependent. […] At concentrations >0.5 μM Gal-8, there was no further increase in the degree of VEGF-C-induced lymphangiogenesis (FIG. 4C).
To further characterize the role of carbohydrate-mediated recognition in VEGF-C-induced lymphangiogenesis, LEC spheroids were stimulated with VEGF-C (50 ng/ml) in the presence or absence of three different galectin inhibitors. […] Therefore, the data establishes the critical role of Gal-8-mediated carbohydrate-mediated recognition in VEGF-C-induced lymphangiogenesis.

PDPN = target: T1, PDPN (Homo sapiens, UniProt Q86YL7); experiment: Affinity precipitation assay, PDPN; format: binding; details: for binding of PDPN (in words): galectin-conjugated agarose beads, LEC lysates; for inhibition of binding of PDPN to Gal-8: 0.1 M sugar
T1 construct: Within the whole cell lysate, an anti-PDPN-reactive 43-kDa component was detected; host or cells: primary lymphatic endothelial cells (LECs)
T1 sequence (Q86YL7 23-162): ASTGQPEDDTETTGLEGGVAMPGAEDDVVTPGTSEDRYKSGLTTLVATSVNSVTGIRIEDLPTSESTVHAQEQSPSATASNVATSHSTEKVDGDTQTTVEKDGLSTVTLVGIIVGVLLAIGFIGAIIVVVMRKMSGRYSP
Procedure: (§2) Five mg of plant lectins (Vector Labs) and galectins were conjugated to 330 mg of Pierce® NHS-activated agarose dry resin in accordance with the manufacturer's instructions (Thermo Scientific). Primary LECs (Lonza) were lysed in Triton lysis buffer (20 mM Tris-HCl, pH 7.4; 150 mM NaCl; 0.5% Triton X-100 with protease inhibitor cocktail). LEC lysates (250 μg in 500 μL lysis buffer supplemented with 10 mM MgCl2) were incubated with 40 μL (50% slurry) of agarose-conjugated lectins (4° C., overnight). Beads were pelleted by centrifugation at 3000 rpm for 1 min. Non-specific binding proteins were removed by washing the beads with Triton lysis buffer once and PBS twice. Supernatants were discarded; bound proteins were eluted by boiling the beads with 20 μL of 2× Laemmli sample buffer for 7 min, and examined by western blotting.
To determine whether PDPN binds to Gal-8 in a carbohydrate-dependent manner, LEC lysates were incubated with Gal-8-conjugated to agarose beads in the presence or absence of 0.1 M of lactose (an inhibiting sugar) or sucrose (a non-inhibiting sugar). Bound proteins were examined with total cell lysates (input) by western blot using an anti-PDPN antibody. To determine specificity of PDPN binding to Gal-8, LEC lysates were also incubated with agarose beads conjugated to Gal-1, Gal-3 and Gal-7. Within the whole cell lysate, an anti-PDPN-reactive 43-kDa component was detected (FIG. 7A).

[2] = tested on: Gal-8-induced LEC sprouting; experiment: LEC sprouting assay: Gal-8-induced sprouting with inhibitors or knockdown; format: cell-based, human
Procedure: as §1, with “It was observed that sprout lengths vary from passages to passages.” left out
To determine the role of these pathways on Gal-8-induced lymphangiogenesis, LEC spheroids were stimulated with Gal-8 (0.75 μM) in the presence or absence of PI3K inhibitor (LY294002, 20 μM) and two different MEK inhibitors (U0126, 20 μM; PD0325901, 1 μM). After overnight treatment with Gal-8, accumulated sprout lengths were quantified.

VEGFR-3 = experiment: Affinity precipitation assay, VEGFR-3; format: binding, human; details: 0.1 M sugar
Procedure: as §2
Next, a series of examples were performed to determine whether VEGF-C-induced lymphangiogenesis is dependent on Gal-8. To determine whether VEGFR-3 is a Gal-8-binding protein, LEC lysates were incubated with Gal-8-conjugated agarose beads in the presence or absence of 0.1 M of lactose (an inhibiting sugar) or sucrose (a non-inhibiting sugar). Bound proteins were examined and were compared to total cell lysates (input) by western blot using anti-VEGFR-3 antibody. Three forms of VEGFR-3 (125 kDa, 175 kDa and 195 kDa) were detected in total cell lysates (FIG. 5A) (Bando, H., et al. 2004. Int J Cancer 111:184-191.). […] Having shown that Gal-8 binds to VEGFR-3 in LECs and that the carbohydrate-binding activity of Gal-8 is required for the synergistic effect of Gal-8 on VEGF-C-induced LEC sprouting, it was of interest to determine whether VEGFR-3 bears 3′-sialylated glycans.

[3] = Gal-8 0.75 μM, 24 h, TDG 20 mM, LY294002 20 μM, U0126 20 μM, PD0325901 1 μM, Avastin 10 μg/ml, Obtustatin 4 μM, antibodies 20 μg/ml, siRNA-transfected LECs

With Gal-7: recombinant galectin-7 the “promotion of LEC sprouting by the agent alone (in words)” value (“promotion of LEC sprouting” for short) (LEC spheroids) was “not Gal-1, Gal-3 or Gal-7, promotes LEC sprouting”, the “effect on VEGF-C-induced LEC sprouting (in words)” value [1] was “did not potentiate” and the “binding of PDPN (in words)” value (PDPN) was “does not bind”.

For `N#CC(=C(/N)Sc1ccccc1N)/C(C#N)=C(\N)Sc1ccccc1N` [U0126], the “effect on Gal-8-induced LEC sprouting (in words)” value [2] was “markedly inhibited”.

In the case of `O=C(NOC[C@H](O)CO)c1ccc(F)c(F)c1Nc1ccc(I)cc1F` [PD0325901], the “effect on Gal-8-induced LEC sprouting (in words)” value [2, 3] is reported as “markedly inhibited”.

For `OC[C@H]1O[C@@H](O[C@H]2[C@H](O)[C@@H](O)C(O)O[C@@H]2CO)[C@H](O)[C@@H](O)[C@H]1O` (some centres unmarked) [lactose, reference compound], the “inhibition of binding of VEGFR-3 to Gal-8” value (VEGFR-3) was “inhibited” and the “inhibition of binding of PDPN to Gal-8” value (PDPN) was “inhibited”.

`OC[C@H]1O[C@@](CO)(O[C@H]2O[C@H](CO)[C@@H](O)[C@H](O)[C@H]2O)[C@@H](O)[C@@H]1O` [sucrose, reference compound] was tested, and the “inhibition of binding of VEGFR-3 to Gal-8” value (VEGFR-3) was “not sucrose, a noncompeting sugar” and the “inhibition of binding of PDPN to Gal-8” value (PDPN) was “not by sucrose”.

With `CC(=O)N[C@H]1[C@H]([C@H](O)[C@H](O)CO)O[C@@](O[C@H]2[C@@H](O)[C@@H](CO)O[C@@H](O[C@H]3[C@H](O)[C@@H](O)C(O)O[C@@H]3CO)[C@@H]2O)(C(=O)O)C[C@@H]1O` (some centres unmarked) [3′-SL, 3′-sialyllactose] the “inhibition of Gal-8-induced LEC sprouting” value ([2]; at 2 mM concentration) was 95%, the “nH of inhibition of galectin-8-mediated LEC sprouting” value ([2]; galectin-8 at 0.75 μM) was 3.38 and the IC50 ([2]; galectin-8 at 0.75 μM, read-out: IC50 of the inhibitory effect on galectin-8-mediated LEC sprouting) was 1250 µM. The Ki ([2]; galectin-8 at 0.75 μM, read-out: Ki (Ki=IC50/(1+[A]/EC50))) was 1670 µM and the “effect on VEGF-C-induced LEC sprouting (in words)” value [1] was “inhibited”.

“Gal-8Q47A: Gal-8 mutant which has lost its ability to bind to α2,3-sialylated glycans” was tested, and the “promotion of LEC sprouting” value (LEC spheroids) was “not promote lymphangiogenesis”.

With Gal-1: recombinant galectin-1 the “promotion of LEC sprouting” value (LEC spheroids) was “not Gal-1, Gal-3 or Gal-7, promotes LEC sprouting”, the “effect on VEGF-C-induced LEC sprouting (in words)” value [1] was “did not potentiate” and the “binding of PDPN (in words)” value (PDPN) was “does not bind”.

For “Obtustatin: a blocking peptide against integrin α1β1 (CTTGPCCRQCKLKPAGTTCWKTSLTSHYCTGKSCDCPLYPG) [reference compound]”, the “effect on Gal-8-induced LEC sprouting (in words)” value [2, 3] was “inhibited” and the “effect on VEGF-C-induced LEC sprouting (in words)” value [1] was “inhibited”.

With `CC(=O)N[C@H]1[C@H]([C@H](O)[C@H](O)CO)O[C@@](OC[C@H]2O[C@@H](O[C@H]3[C@H](O)[C@@H](O)[C@H](O)O[C@@H]3CO)[C@H](O)[C@@H](O)[C@H]2O)(C(=O)O)C[C@@H]1O` [6′-SL, 6′-sialyl lactose] the “effect on Gal-8-induced LEC sprouting (in words)” value [2, 3] was “had no effect”.

For Gal-3: recombinant galectin-3, the “promotion of LEC sprouting” value (LEC spheroids) was “not Gal-1, Gal-3 or Gal-7, promotes LEC sprouting”, the “effect on VEGF-C-induced LEC sprouting (in words)” value [1] was “did not potentiate” and the “binding of PDPN (in words)” value (PDPN) was “does not bind”.

B1: VEGFR-3-Fc: human VEGFR-3-Fc chimera (protein)
chain: YSMTPPTLNITEESHVIDTGDSLSISCRGQHPLEWAWPGAQEAPATGDKDSEDTGVVRDCEGTDARPYCKVLLLHEVHANDTGSYVCYYKYIKARIEGTTAASSYVFVRDFEQPFINKPDTLLVNRKDAMWVPCLVSIPGLNVTLRSQSSVLWPDGQEVVWDDRRGMLVSTPLLHDALYLQCETTWGDQDFLSNPFLVHITGNELYDIQLLPRKSLELLVGEKLVLNCTVWAEFNSGVTFDWDYPGKQAERGKWVPERRSQQTHTELSSILTIHNVSQHDLGSYVCKANNGIQRFRESTEVIVHENPFISVEWLKGPILEATAGDELVKLPVKLAAYPPPEFQWYKDGKALSGRHSPHALVLKEVTEASTGTYTLALWNSAAGLRRNISLELVVNVPPQIHEKEASSPSIYSRHSRQALTCTAYGVPLPLSIQWHWRPWTPCKMFAQRSLRRRQQQDLMPQCRDWRAVTTQDAVNPIESLDTWTEFVEGKNKTVSKLVIQNANVSAMYKCVVSNKVGQDERLIYFYVTTIPDGFTIESKPSEELLEGQPVLLSCQADSYKYEHLRWYRLNLSTLHDAHGNPLLLDCKNVHLFATPLAASLEEVAPGARHATLSLSIPRVAPEHEGHYVCEVQDRRSHDKHCHKKYLSVQALEAPRLTQNLTDLLVNVSDSLEMQCLVAGAHAPSIVWYKDERLLEEKSGVDLADSNQKLSIQRVREEDAGRYLCSVCNAKGCVNSSASVAVEGSEDKGSMEI
modifications: left off: a dimerising Fc or GST
notes: human VEGFR-3-Fc chimera
With B1 the “% inhibition of Gal-8-induced LEC sprouting” value ([2]; Gal-8 0.75 μM, 10 μg/ml, 24 hours) was 37% and the “effect on VEGF-C-induced LEC sprouting (in words)” value [1] was “inhibited”.
